Measurements reported in paper PMC2631555 (Bioorganic & medicinal chemistry letters, 2008).
pEC50: −log10 of the molar value.

Experiments:
[1] = Solubility in PBS + 5% DMSO; conditions: 2 h, room temperature
tubulin = conditions: 10 µM compound; purified tubulin 7.2 µM, GTP, 37°C, 0.5% DMSO
Vero cells = conditions: read-out: Vero EC50; 48 h exposure, CellTiter-Glo
[2] = PAMPA

COc1cc2c(c(OC)c1OC)-c1ccc(OC)c(=O)cc1[C@@H](NC(C)=O)CC2 [Colchicine]
Solubility [1]: highly soluble

CC(=O)O[C@H]1C(=O)[C@@]2(C)[C@H]([C@H](OC(=O)c3ccccc3)[C@]3(O)C[C@H](OC(=O)[C@H](O)[C@@H](NC(=O)c4ccccc4)c4ccccc4)C(C)=C1C3(C)C)[C@]1(OC(C)=O)CO[C@@H]1C[C@@H]2O [paclitaxel]
Microtubule formation compared with untreated tubulin (tubulin): enhanced

COc1cc2c(c(OC)c1OC)-c1ccc(OC)c(=O)cc1[C@@H](NC(=O)CCCCCNC(=O)COc1ccc(/C=C/C3=[N+]4C(=Cc5ccc(-c6ccc[nH]6)n5[B-]4(F)F)C=C3)cc1)CC2 [colchicine-646]
pEC50 (Vero cells): < 5.00
Permeability [2]: <10 10^-6 cm/s
